The source of these data is patent US6808724B2, “Artemisolide compound isolated from the aerial parts of Artemisia sylvatica, isolation method, and use thereof” (Korea Research Institute of Bioscience and Biotechnology, priority 2002, dated 2004).

One data set deals with T1, farnesyl transferase (Rattus norvegicus, UniProt Q02293+Q04631).
T1 construct: 100-150 g of brain was separated from a male rat (Sprague Dowley); from tissue; host or cells: rat (Sprague Dawley) brain
The data set is described as follows: Farnesyl transferase inhibition, scintillation proximity assay with 3H-FPP and biotin-lamin B peptide. It is filed as biochemical. The procedure: 100-150 g of brain was separated from a male rat (Sprague Dowley). It was washed with a physiological salt solution and homogenized. Then, farnesyl transferase enzymogen was separated by centrifuging and partially purifying the homogenate with a Q Sepharose Fast Flow Column. The enzyme activity was determined by scintillation proximity assay (SPA), using the ^3H-farnesyl pyrophosphate (FPP) substrate.
To be specific, the method of Michael S. Brown, etc. (Yuval Reiss, Joseph L. Goldstein, Miguel C. Seabra, Patrick J. Casey and Michael S. Brown, 1990, Inhibition of Purified p21ras Farnesyl Protein Transferase by Cys-AAX Tetrapeptides, 62, 81-88) was modified a little. 10 μl of the sample liquid, 10 μl of analysis buffer solution (50 mM Tris-HCL pH7.5, 25 mM MgCl2, 2 mM KCl, 5 mM DTT, 5 mM Na2HPO4, 0.01% Triton X-100), 20 μl of diluted ^3H-FPP, 20 μl biotin-lamin B peptide and 40 μl of farnesyl transferase were mixed well and rendered to react for 30 min at room temperature. Then, 150 μl of SPA bead/stop reagent solution was added. The farnesylation level of biotin-lamin B peptide was measured by using a scintillation counter in CPM (counts per minute) unit. The farnesyl transferase activity inhibition was calculated via Equation 1. [formula] […]

Data set [1] deals with NIH3T3 (mouse fibroblast). The data set is described as follows: Cell growth inhibition (WST-1), NIH3T3. Conditions: 48 hr culture, read-out: GI50, the concentration when the cancer cell growth is inhibited by 50%. It is filed as cell-based. The procedure:
(§1) NIH3T3 (mouse fibroblast), K-ras (K-ras gene transformed NIH3T3 cell), H-ras (H-ras gene transformed NIH3T3 cell) and SW620 (human colon cancer cell) solid tumor cell lines were cultured in 10% of bovine serum albumin or RPMI 1640 medium (containing L-glutamine and not containing sodium bicarbonate; Gibco Cat. No 31800-022) under 37° C. and 5% CO2 condition. The subculture was carried out 2 times a week. The cells were separated from the wall using 0.5% of trypsin and 5.3 mM EDTA (ethylenediamine tetra acetic acid) dissolved in phosphate buffer solution (PBS). In each well of 96-well plate (Falcon), 3×10^3-6×10^3 cells were added and cultured at 37° C. in the presence of 5% CO2 of medium for 24 hr. The new compound was dissolved in dimethyl sulfoxide (DMSO) and diluted to the concentration required for the test. The final concentration of DMSO was set to be lower than 0.5%.
(§2) After removing all medium from the 96-well plate, […] of the new compound was added to each well. After 48 hr of culture, WST-1 was added to each well. Then the culture plate was placed for 3 hr at 37° C. in the presence of 5% CO2. When the reaction was completed, light absorption at 450-690 nm was measured by using an ELISA reader to identify the cancer cell growth inhibition effect.
On the technique in general: Tetrazolium assays rely on reduction of a dye to a coloured formazan, in cell work by metabolically active cells.

Data set [2] has as its system K-ras (K-ras gene transformed NIH3T3 cell). The data set is described as follows: Cell growth inhibition (WST-1), K-ras. It is filed as cell-based. Conditions: Mus musculus, 48 hr culture, read-out: GI50, the concentration when the cancer cell growth is inhibited by 50%. The procedure:
as §1, §2

The subject of data set [3] is H-ras (H-ras gene transformed NIH3T3 cell). Briefly: Cell growth inhibition (WST-1), H-ras. It is filed as cell-based. Conditions: Mus musculus, 48 hr culture, read-out: GI50, the concentration when the cancer cell growth is inhibited by 50%. The procedure:
as §1, §2

Data set [4] concerns SW620 (human colon cancer cell). Briefly: Cell growth inhibition (WST-1), SW620. It is filed as cell-based. Conditions: SW-620, 48 hr culture, read-out: GI50, the concentration when the cancer cell growth is inhibited by 50%. The procedure:
as §1, §2

For another data set, the system named is Molt-4 cell. Briefly: Leukemia cell growth inhibition, Molt-4. It is filed as cell-based. Conditions: Homo sapiens, read-out: GI50, the concentration when the cancer cell growth is inhibited by 50%. The procedure: as §2
In a further data set the test system is HL-60 cell. The data set is described as follows: Leukemia cell growth inhibition, HL-60. It is filed as cell-based. The settings on record: Homo sapiens, read-out: GI50, the concentration when the cancer cell growth is inhibited by 50%. The method, then:
as §2

The next data set concerns mice. Briefly: Toxicity test in mice. It is filed as in vivo. The method, then:
The compound expressed by the formula 1 was dissolved in dimethyl sulfoxide (DMSO). The solution was diluted with water and administered to mice (10 heads per group) by 100 μg/kg.

The nature of data set [5]: Physical and chemical properties: solubility in solvents. It is filed as physicochemical. The method, then: The structure of the obtained white powder compound was analyzed by NMR. The compound is expressed by Formula 1 (molecular formula=C25H32O4; molecular weight=396.52).

Molecules are shown by their SMILES.

A word on the inhibition: it is the change of the read-out against control, counted positive when it falls. A high value points to a response far below the control. In turn, `C=C1C(=O)O[C@@H]2[C@@H]1CC[C@](C)(O)C13C=CC(C)([C@@H]21)[C@]1(C3)C(=O)C[C@@]2(C(C)C)C[C@H]21` (some centres unmarked) [Formula 1, Artemisolide] yielded an inhibition at 100 µg/mL against farnesyl transferase (at 100 μg/ml) of roughly 50%. The IC50 at farnesyl transferase (read-out: IC50 (concentration for inhibiting activity by 50%) on farnesyl transferase (converted)) is roughly 252 µM. Besides, the GI50 in data set [1] is roughly 5.5 µg/mL; in [2], roughly 0.8 µg/mL; in data set [3] it was 1.2 µg/mL; in data set [4] it was 2.5 µg/mL; in the data set with Molt-4 cell, 3.2 µM; in the data set with HL-60 cell it was roughly 1.5 µM. Besides, the “acute toxicity in the animal test” value in the data set with mice was “no acute toxicity”. Further, the “Insoluble in” value in data set [5] is “Hexane”. Further, the “Soluble in” value in data set [5] is listed as “MeOH; acetone; EtOAc”.
